{"source": "patent USRE35145E", "about": "“Substituted phthalocyanine” (Zeneca Limited, priority 1987, dated 1996)", "key": {"[1]": {"assay": "Near infra-red absorption spectrum in solution (WLmax, ECmax, band width)", "format": "physicochemical", "text": "The region from 750 to 1100 nm is of particular importance for optical character recognition (OCR) and for energy conversion, e.g. from laser radiation to heat. Many OCR systems use solid state semi-conductor lasers, which generally emit at 780-830 nm, as the radiation source and photodiode detectors based on silicon which have peak sensitivity around 900 rim.\nWLmax is the wavelength of the absorption maximum; and\nECmax is the extinction coefficient at the absorption maximum."}, "[2]": {"assay": "Solubility in water, MEK, ethanol, glycols", "format": "physicochemical", "conditions": "25° C., percentages by weight", "text": "Various applications of the present compounds, especially for printing inks, require products which are soluble in solvents of differing polarities. The major requirements are for water-soluble products (water and water-alcohol or water-glycol mixtures), alcohol (typically methanol, ethanol and propanol) and glycol (typically ethylene glycol and diethylene glycol) soluble products and ketone (typically MEK) soluble products."}}}
{"substance": "hepta(4-methylphenylthio)-tetra(1-amino-2-thio-phen-1,2-ylene)-CuPc [OTCPC]", "values": [{"measurement": "WLmax (wavelength of the absorption maximum)", "setting": "[1]; in CH3 Cl", "value": 890, "unit": "nm"}, {"measurement": "ECmax (extinction coefficient at the absorption maximum)", "setting": "[1]; in MEK", "value": "46,000"}, {"measurement": "Solubility", "setting": "[2]", "value": 10, "unit": "%"}]}
